{"source": "PubChem BioAssay AID1259411", "about": "(Chemical Carcinogenesis Research Information System (CCRIS), 2018)", "test_system": "rodent carcinogenicity bioassays, tumor incidence", "assay": "CCRIS carcinogenicity studies", "conditions": "Dose: 0, Dose: 0", "in_short": "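Archive of carcinogenicity, mutagenicity, tumor promotion and tumor inhibition results drawn from journals, NCI reports and other sources, expert-reviewed; covers 1985-2011 and is no longer updated.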", "note": "Calls of active or inactive are those of the source. How the calls were made is not given here.", "data": [{"smiles": "ClC1=C(Cl)C(Cl)(Cl)C(Cl)=C1Cl", "values": [{"measurement": "carcinogen call", "setting": "Species: MOUSE, Strain/Sex: B6C3F1/FEMALE, Route: INHALATION, 0.01, 0.05, 0.2 PPM IN AIR 6 HR/D 5 D/WK FOR 104 WK (STUDY DURATION: 104 WK), 0.01, 0.05, 0.2 PPM IN AIR 6 HR/D 5 D/WK FOR 104 WK (STUDY DURATION: 104 WK)", "result": "inactive; negative"}, {"measurement": "carcinogen call", "setting": "Species: MOUSE, Strain/Sex: B6C3F1/MALE, Route: INHALATION, 0.01, 0.05, 0.2 PPM IN AIR 6 HR/D 5 D/WK FOR 104 WK (STUDY DURATION: 104 WK), 0.01, 0.05, 0.2 PPM IN AIR 6 HR/D 5 D/WK FOR 104 WK (STUDY DURATION: 104 WK)", "result": "inactive; negative"}, {"measurement": "carcinogen call", "setting": "Species: RAT, Strain/Sex: F344/FEMALE, Route: INHALATION, 0.01, 0.05, 0.2 PPM IN AIR 6 HR/D 5 D/WK FOR 104 WK (STUDY DURATION: 104 WK), 0.01, 0.05, 0.2 PPM IN AIR 6 HR/D 5 D/WK FOR 104 WK (STUDY DURATION: 104 WK)", "result": "inactive; negative"}, {"measurement": "carcinogen call", "setting": "Species: RAT, Strain/Sex: F344/MALE, Route: INHALATION, 0.01, 0.05, 0.2 PPM IN AIR 6 HR/D 5 D/WK FOR 104 WK (STUDY DURATION: 104 WK), 0.01, 0.05, 0.2 PPM IN AIR 6 HR/D 5 D/WK FOR 104 WK (STUDY DURATION: 104 WK)", "result": "inactive; negative"}]}, {"smiles": "Cc1ccc(S(=O)(=O)O)cc1C", "values": [{"measurement": "carcinogen call", "setting": "Species: MOUSE, Strain/Sex: B6C3F1/FEMALE, Route: DERMAL, 182, 364, 727 MG/KG IN 50% ETHANOL 5D/WK FOR 105 WK (STUDY DURATION: 105 WK), 182, 364, 727 MG/KG IN 50% ETHANOL 5D/WK FOR 105 WK (STUDY DURATION: 105 WK)", "result": "inactive; negative"}, {"measurement": "carcinogen call", "setting": "Species: MOUSE, Strain/Sex: B6C3F1/MALE, Route: DERMAL, 182, 364, 727 MG/KG IN 50% ETHANOL 5D/WK FOR 104 WK (STUDY DURATION: 104 WK), 182, 364, 727 MG/KG IN 50% ETHANOL 5D/WK FOR 104 WK (STUDY DURATION: 104 WK)", "result": "inactive; negative"}, {"measurement": "carcinogen call", "setting": "Species: RAT, Strain/Sex: F344/FEMALE, Route: DERMAL, 60, 120, 240 MG/KG IN 50% ETHANOL 5 D/WK FOR 104 WK (STUDY DURATION: 104 WK), 60, 120, 240 MG/KG IN 50% ETHANOL 5 D/WK FOR 104 WK (STUDY DURATION: 104 WK)", "result": "inactive; negative"}, {"measurement": "carcinogen call", "setting": "Species: RAT, Strain/Sex: F344/MALE, Route: DERMAL, 60, 120, 240 MG/KG IN 50% ETHANOL 5D/WK FOR 104 WK (STUDY DURATION: 104 WK), 60, 120, 240 MG/KG IN 50% ETHANOL 5D/WK FOR 104 WK (STUDY DURATION: 104 WK)", "result": "inactive; negative"}]}, {"smiles": "C1O[C@@H]1[C@H]1CO1", "values": [{"measurement": "carcinogen call", "setting": "Species: MOUSE, Strain/Sex: B6C3F1/FEMALE, Route: INHALATION, 2.5, 5.0 PPM 6 HR/D 5 D/WK FOR 6 WK (STUDY DURATION: 84 WK), 2.5, 5.0 PPM 6 HR/D 5 D/WK FOR 6 WK (STUDY DURATION: 84 WK), Tumor Site: Type of Lesion: HARDERIAN GLAND: TUMOR", "result": "active; positive"}, {"measurement": "carcinogen call", "setting": "Species: RAT, Strain/Sex: SPRAGUE-DAWLEY/FEMALE, Route: INHALATION, 2.5, 5.0 PPM 6 HR/D 5 D/WK FOR 6 WK (STUDY DURATION: 84 WK), 2.5, 5.0 PPM 6 HR/D 5 D/WK FOR 6 WK (STUDY DURATION: 84 WK), Tumor Site: Type of Lesion: NASAL MUCOSA: TUMOR", "result": "active; positive"}]}, {"smiles": "C1=Cc2cc3ccccc3c3cccc1c23", "values": [{"measurement": "carcinogen call", "setting": "Species: MOUSE, Strain/Sex: BLU:HA/FEMALE, Route: INTRAPERITONEAL, 175, 437.5 UG/KG/D ON DAYS 1 (1/7 TOTAL DOSE), 8 (2/7 TOTAL DOSE), AND 15 (4/7 TOTAL DOSE) AFTER BIRTH (STUDY DURATIO, 175, 437.5 UG/KG/D ON DAYS 1 (1/7 TOTAL DOSE), 8 (2/7 TOTAL DOSE), AND 15 (4/7 TOTAL DOSE) AFTER BIRTH (STUDY DURATIO", "result": "inactive; negative"}, {"measurement": "carcinogen call", "setting": "Species: MOUSE, Strain/Sex: BLU:HA/MALE, Route: INTRAPERITONEAL, 175, 437.5 UG/KG/D ON DAYS 1 (1/7 TOTAL DOSE), 8 (2/7 TOTAL DOSE), AND 15 (4/7 TOTAL DOSE) AFTER BIRTH (STUDY DURATIO, 175, 437.5 UG/KG/D ON DAYS 1 (1/7 TOTAL DOSE), 8 (2/7 TOTAL DOSE), AND 15 (4/7 TOTAL DOSE) AFTER BIRTH (STUDY DURATIO, Tumor Site: Type of Lesion: LUNG: ADENOMA", "result": "active; positive"}, {"measurement": "carcinogen call", "setting": "Species: MOUSE, Strain/Sex: CD-1/FEMALE, Route: INTRAPERITONEAL, 175, 437.5, 875 UG/KG/D ON DAYS 1 (1/7 TOTAL DOSE), 8 (2/7 TOTAL DOSE), AND 15 (4/7 TOTAL DOSE) AFTER BIRTH (STUDY DU, 175, 437.5, 875 UG/KG/D ON DAYS 1 (1/7 TOTAL DOSE), 8 (2/7 TOTAL DOSE), AND 15 (4/7 TOTAL DOSE) AFTER BIRTH (STUDY DU", "result": "inactive; negative"}, {"measurement": "carcinogen call", "setting": "Species: MOUSE, Strain/Sex: CD-1/MALE, Route: INTRAPERITONEAL, 175, 437.5, 875 UG/KG/D ON DAYS 1 (1/7 TOTAL DOSE), 8 (2/7 TOTAL DOSE), AND 15 (4/7 TOTAL DOSE) AFTER BIRTH (STUDY DU, 175, 437.5, 875 UG/KG/D ON DAYS 1 (1/7 TOTAL DOSE), 8 (2/7 TOTAL DOSE), AND 15 (4/7 TOTAL DOSE) AFTER BIRTH (STUDY DU, Tumor Site: Type of Lesion: LUNG: ADENOMA OR ADENOCARCINOMA, LIVER: TUMOR", "result": "active; positive"}]}, {"smiles": "CN(N=O)C(CCC(=O)O)c1cccnc1", "note": "(stereo not drawn)", "values": [{"measurement": "carcinogen call", "setting": "Species: MOUSE, Strain/Sex: STRAIN-A/FEMALE, Route: INTRAPERITONEAL, 2.23 MG 3/WK FOR 20 WK (STUDY DURATION: 50 WK)", "result": "inactive; negative"}, {"measurement": "carcinogen call", "setting": "Species: MOUSE, Strain/Sex: STRAIN-A/FEMALE, Route: INTRAPERITONEAL, 200 UMOL MOUSE (TOTAL DOSE) ADMINISTERED IN 0.1 ML SALINE 3/WK (TOTAL 20 INJECTIONS) (STUDY DURATION: 37 WK)", "result": "inactive; negative"}, {"measurement": "carcinogen call", "setting": "Species: MOUSE, Strain/Sex: STRAIN-A/FEMALE, Route: INTRAPERITONEAL, 200 UMOL TOTAL DOSE ADMINISTERED IN SUBDOSES 3/WK FOR 7 WK (STUDY DURATION: 37 WK)", "result": "inactive; negative"}]}, {"smiles": "O[C@@H]1[C@@H](O)[C@@H]2OC[C@@H](O2)[C@H]1O", "values": [{"measurement": "carcinogen call", "setting": "Species: MOUSE, Strain/Sex: CD-1/FEMALE, Route: DERMAL, 20 UMOL/0.1 ML DMSO 2/WK FOR 5 WK FOLLOWED 1 WK LATER BY 0.1 ML ACETONE 2/WK FOR 47 WK (STUDY DURATION: 52 WK)", "result": "inactive; negative"}]}, {"smiles": "CCNC(=O)N(CC)N=O", "values": [{"measurement": "carcinogen call", "setting": "Species: RAT, Strain/Sex: F344/FEMALE, Route: GAVAGE, 20, 40 UMOL/WK IN CORN OIL/ETHYL ACETATE (2: 1) FOR 30 WK (LOW DOSE) OR 22.5 WK (HIGH DOSE) FOR TOTAL DOSES OF 0, 0.6, 20, 40 UMOL/WK IN CORN OIL/ETHYL ACETATE (2: 1) FOR 30 WK (LOW DOSE) OR 22.5 WK (HIGH DOSE) FOR TOTAL DOSES OF 0, 0.6, Tumor Site: Type of Lesion: MAMMARY GLAND: TUMOR", "result": "active; positive"}, {"measurement": "carcinogen call", "setting": "Species: RAT, Strain/Sex: F344/FEMALE, Route: INTRAVESICULAR, 3 MG 2/WK FOR 30 WK (STUDY DURATION: LIFETIME), Tumor Site: Type of Lesion: MAMMARY GLAND: TUMOR, LUNG: TUMOR, ZYMBAL GLAND: TUMOR, Tumor Site: Type of Lesion: MAMMARY GLAND: TUMOR, LUNG: TUMOR, ZYMBAL GLAND: TUMOR", "result": "active; positive"}, {"measurement": "carcinogen call", "setting": "Species: RAT, Strain/Sex: F344/FEMALE, Route: ORAL, 20, 40 UMOL/WK IN DRINKING WATER FOR 30 WK FOR TOTAL DOSES OF 0, 0.6, 1.2 MMOL (STUDY DURATION: LIFETIME), 20, 40 UMOL/WK IN DRINKING WATER FOR 30 WK FOR TOTAL DOSES OF 0, 0.6, 1.2 MMOL (STUDY DURATION: LIFETIME), Tumor Site: Type of Lesion: LUNG: TUMOR, MAMMARY GLAND: TUMOR, UTERUS: TUMOR, Tumor Site: Type of Lesion: LUNG: TUMOR, MAMMARY GLAND: TUMOR, UTERUS: TUMOR", "result": "active; positive"}, {"measurement": "carcinogen call", "setting": "Species: RAT, Strain/Sex: F344/MALE, Route: GAVAGE, 20, 40 UMOL/WK IN CORN OIL/ETHYL ACETATE (2: 1) FOR 30 WK FOR TOTAL DOSES OF 0, 0.6, 1.2 MMOL (STUDY DURATION: LIFETI, 20, 40 UMOL/WK IN CORN OIL/ETHYL ACETATE (2: 1) FOR 30 WK FOR TOTAL DOSES OF 0, 0.6, 1.2 MMOL (STUDY DURATION: LIFETI, Tumor Site: Type of Lesion: LUNG: TUMOR, TESTIS: MESOTHELIOMA, NERVOUS SYSTEM: TUMOR, ZYMBAL GLAND: TUMOR, COLON: TUMOR, Tumor Site: Type of Lesion: LUNG: TUMOR, TESTIS: MESOTHELIOMA, NERVOUS SYSTEM: TUMOR, ZYMBAL GLAND: TUMOR, COLON: TUMOR", "result": "active; positive"}, {"measurement": "carcinogen call", "setting": "Species: RAT, Strain/Sex: F344/MALE, Route: ORAL, 20, 40 UMOL/WK IN DRINKING WATER FOR 30 WK FOR TOTAL DOSES OF 0, 0.6, 1.2 MMOL (STUDY DURATION: LIFETIME), 20, 40 UMOL/WK IN DRINKING WATER FOR 30 WK FOR TOTAL DOSES OF 0, 0.6, 1.2 MMOL (STUDY DURATION: LIFETIME), Tumor Site: Type of Lesion: LUNG: TUMOR, TESTIS: MESOTHELIOMA, COLON: TUMOR, SKIN: TUMOR, Tumor Site: Type of Lesion: LUNG: TUMOR, TESTIS: MESOTHELIOMA, COLON: TUMOR, SKIN: TUMOR", "result": "active; positive"}]}]}
